Experimental data published in patent US4400384A, “5-o-Cyanobenzyl-4,5,6,7-tetrahydrothieno [3,2-c] pyridine methanesulfonate and other novel salts thereof” (Sanofi, S.A., priority 1980, dated 1983).
“Also recorded” adds a separate entry of the source. Where two headings read alike, the source gives them in different places.

Assays:
Analgesic activity = details: in vivo
rats = experiment: Sub-acute toxicity in rats, oral, 6 weeks; assay type: in vivo
Description: These tests were carried out on four groups of 30 rats, 15 males and 15 females in each group; the rats all being type SPF adults. Administration was by the oral route, carried out 5 days per week for a period of 6 consecutive weeks.

[1] = Hypolipidic, hypocholesterol, hypoglycemic activity; details: in vivo
Vasodilator activity = assay type: in vivo; details: result in words
Hemostasis activity = details: in vivo
central nervous system = experiment: Central nervous system activity per se, rats; assay type: in vivo
[2] = system: central nervous system activity of chloral and "Nembutal"; experiment: Potentiation of central nervous system activity of chloral and Nembutal; assay type: in vivo
Acute toxicity in rats = details: rat, in vivo
Description: The preferred methanesulfonate salt of the present invention was tested for acute and sub-acute toxicity and the results obtained on rats and mice by oral, intravenous and intraperitoneal administration are set forth in the tables below.

red globules = experiment: Anti-sludge activity in vitro on red globules; assay type: cell-based
[3] = oral, 50, 150, 300 mg/Kg, 5 days per week, 6 weeks

Question: With `CS(=O)(=O)O.N#Cc1ccccc1CN1CCc2sccc2C1` [Methanesulfonate, 5-o-Cyanobenzyl-4,5,6,7-tetrahydrothieno [3,2-c] pyridine methanesulfonate] as the compound, how does the analgesic properties (Analgesic activity) read?
Answer: free of analgesic properties

Question: And the “toxicity and tolerance (overall)” value (rats; conclusion from acute and sub-acute tests)?
Answer: low toxicity and good tolerance

Question: What about the “microscopic examination of principal organs” value (rats; end of test period or 15 days thereafter) of the same compound?
Answer: normal in appearance with exception of some signs of gastric intolerance

Question: And the “histological examination of the organs” value (rats; oral, 6 weeks)?
Answer: good tolerance

Question: What about the “behavior of the dosed animals” value (rats; [3]) of the same compound?
Answer: No significant modification of the behavior

Question: And the “death attributable to administration” value (rats; [3])?
Answer: nor was there any death attributable to the administration of the MS salt

Question: And the hypocholesterol activity [1]?
Answer: no hypolipidic, hypocholesterol

Question: What about the hypoglycemic activity [1] of the same compound?
Answer: no hypolipidic, hypocholesterol, or hypoglycemic activity

Question: And the hypolipidic activity [1]?
Answer: no hypolipidic

Question: What about the “peripheral and cerebral vasodilator activity” value (Vasodilator activity) of the same compound?
Answer: lacks the peripheral and cerebral vasodilator activity

Question: And the vasodilator action (Vasodilator activity; listed as MS salt, methanesulfonate)?
Answer: without causing vasodilator action; also recorded: free of anti-inflammatory or vasodilator activity as is the MS salt

Question: What about the hemostasis activity (Hemostasis activity) of the same compound?
Answer: no hemostasis activity

Question: And the “influence on the central nervous system per se, rats” value (central nervous system)?
Answer: no influence on the central nervous system

Question: And the “potentiation of central nervous system activity of Nembutal” value ([2]; "Nembutal" (Ca or Na pentobarbital))?
Answer: does potentialize the central nervous system activity

Question: What about the “potentiation of central nervous system activity of chloral” value ([2]; chloral) of the same compound?
Answer: does potentialize the central nervous system activity of chloral

Question: What about the LD50 at 8 h (Acute toxicity in rats; intravenous, read-out: LD50, intravenous, rats) of the same compound?
Answer: 80.2 mg/kg

Question: What about the LD50 at 8 h (Acute toxicity in rats; ip, intraperitoneal, read-out: LD50, intraperitoneal, rats) of the same compound?
Answer: 719 mg/kg

Question: And the “anti-sludge activity in vitro” value (red globules)?
Answer: anti-sludge activity in vitro on red globules
